Data set [1] is described as follows: Metabolic stability in human plasma assessed as half life by HPLC analysis. The class given is ADME, cell-free.
Data set [2] relates to SH-SY5Y. Kind of data set: Neuroprotective against IFNgamma/LPS stimulated THP1 condition medium-induced neurotoxicity in human SH-SY5Y cells assessed as decrease in iNOS expression at 100 uM pretreated for 1 hr followed by addition of THP1 conditioned medium by western blot analysis. The class given is functional, cell-based.
The test system of data set [3] is SH-SY5Y. In words: Neuroprotective against IFNgamma/LPS stimulated THP1 condition medium-induced neurotoxicity in human SH-SY5Y cells assessed as decrease in apoptosis at 100 uM for 1 hr followed by addition of THP1 conditioned medium by annexinV/PI staining based flow cytometry. The data set is classed as functional, cell-based. On the technique in general: Flow cytometry measures light scatter and fluorescence of single cells or particles in a stream.

The subject of data set [4] is SH-SY5Y. In words: Neuroprotective against IFNgamma/LPS stimulated THP1 condition medium-induced neurotoxicity in human SH-SY5Y cells assessed as NO production per 10^6 cells at 100 uM for 1 hr followed by addition of THP1 conditioned medium by griess assay (reference value: 3.75 +/- 0.14 micromol/L). The class given is functional. (In general: Griess reagent forms a coloured azo dye with nitrite.)

The test system of data set [5] is SH-SY5Y. In words: Neuroprotective activity against human SH-SY5Y cells assessed as inhibition of IFNgamma/LPS stimulated THP1 condition medium-induced cytotoxicity measured as cell viability at 100 uM for 1 hr followed by addition of THP1 conditioned medium for 24 hrs by LDH assay relative to control. The class given is functional.
Data set [6] has as its system SH-SY5Y. Kind of data set: Neuroprotective against IFNgamma/LPS stimulated THP1 condition medium-induced neurotoxicity in human SH-SY5Y cells assessed as increase in nNOS expression at 100 uM pretreated for 1 hr followed by addition of THP1 conditioned medium by western blot analysis. The data set is classed as functional, cell-based. In general terms: A western blot detects proteins with antibodies after separation by electrophoresis.

Data set [7] deals with SH-SY5Y. In words: Neuroprotective against IFNgamma/LPS stimulated THP1 condition medium-induced neurotoxicity in human SH-SY5Y cells assessed as NO production per 10^6 cells at 1 uM for 1 hr followed by addition of THP1 conditioned medium by griess assay (reference value: 3.75 +/- 0.14 micromol/L). The class given is functional.
Data set [8] deals with SH-SY5Y. Kind of data set: Cytotoxicity against human SH-SY5Y cells at 0.1 to 100 uM after 24 hrs by MTT assay. The class given is cell-based.
The subject of data set [9] is SH-SY5Y. In words: Effect on NO production in human SH-SY5Y cells by greiss assay. The class given is functional, cell-based.
The test system of data set [10] is SH-SY5Y. In words: Neuroprotective against IFNgamma/LPS stimulated THP1 condition medium-induced neurotoxicity in human SH-SY5Y cells assessed as NO production per 10^6 cells at 10 uM for 1 hr followed by addition of THP1 conditioned medium by griess assay (reference value: 3.75 +/- 0.14 micromol/L). The data set is classed as functional.
For data set [11], the system named is SH-SY5Y. In words: Neuroprotective against IFNgamma/LPS stimulated THP1 condition medium-induced neurotoxicity in human SH-SY5Y cells assessed as NO production per 10^6 cells at 100 nM for 1 hr followed by addition of THP1 conditioned medium by griess assay (reference value: 3.75 +/- 0.14 micromol/L). The class given is functional.
For data set [12], the system named is SH-SY5Y. In words: Neuroprotective against IFNgamma/LPS stimulated THP1 condition medium-induced neurotoxicity in human SH-SY5Y cells assessed as NO production per 10^6 cells at 10 nM for 1 hr followed by addition of THP1 conditioned medium by griess assay (reference value: 3.75 +/- 0.14 micromol/L). The data set is classed as functional.
The test system of data set [13] is SH-SY5Y. Kind of data set: Neuroprotective against IFNgamma/LPS stimulated THP1 condition medium-induced neurotoxicity in human SH-SY5Y cells assessed as reduced iNOS activity at 100 uM pretreated for 1 hr followed by addition of THP1 conditioned medium. The class given is functional, cell-based.
For data set [14], the system named is SH-SY5Y. In words: Neuroprotective activity against human SH-SY5Y cells assessed as inhibition of IFNgamma/LPS stimulated THP1 condition medium-induced cytotoxicity measured as cell viability at 100 uM for 1 hr followed by addition of THP1 conditioned medium for 24 hrs by LDH assay in presence of 1 uM dexamethasone. The class given is functional, cell-based.

Data set [15] concerns SH-SY5Y. Kind of data set: Neuroprotective against IFNgamma/LPS stimulated THP1 condition medium-induced neurotoxicity in human SH-SY5Y cells assessed as increase in cytoplasmic IkappaBalpha level pretreated for 1 hr followed by addition of THP1 conditioned medium by western blot analysis. The class given is functional, cell-based.
Data set [16] has as its system SH-SY5Y. In words: Neuroprotective against IFNgamma/LPS stimulated THP1 condition medium-induced neurotoxicity in human SH-SY5Y cells assessed as increase in nNOS activity at 100 uM pretreated for 1 hr followed by addition of THP1 conditioned medium. The class given is functional, cell-based.
In data set [17] the test system is SH-SY5Y. In words: Neuroprotective against IFNgamma/LPS stimulated THP1 condition medium-induced neurotoxicity in human SH-SY5Y cells assessed as increase in cytoplasmic IkappaBalpha level at 100 uM pretreated for 1 hr followed by addition of THP1 conditioned medium by western blot analysis. The class given is functional, cell-based.
Data set [18] concerns SH-SY5Y. Kind of data set: Neuroprotective against IFNgamma/LPS stimulated THP1 condition medium-induced neurotoxicity in human SH-SY5Y cells assessed as inhibition of RelA/p65 nuclear translocation at 100 uM pretreated for 1 hr followed by addition of THP1 conditioned medium by western blot analysis. The class given is functional, cell-based.

The source made the active and inactive calls. Where a SMILES comes first, the peptide text is derived from it. [ ]: non-standard residue; d: D form. αMeP = C[C@@]1(C(=O)O)CCCN1

The text below walks through data of ChEMBL document CHEMBL3751843, “Development of glycine-α-methyl-proline-containing tripeptides with neuroprotective properties” (Eur J Med Chem, 2016).

The half-life is the time needed for the level to fall by half in the phase considered. For `C[C@@]1(C(=O)N[C@@H](CCCNC(=N)N)C(=O)O)CCCN1C(=O)CN` (H-Gly-[αMeP]-Arg-OH), the half-life in [1] is 132 h. Besides, the inhibition entry in the data set with SH-SY5Y [2], with SH-SY5Y [3] and in the data set on SH-SY5Y [13] was “Active” in each case. For the same compound, the Activity is 2.92 µmol/L with SH-SY5Y [4]; 70% with SH-SY5Y [5]; 3.72 µmol/L in the data set with SH-SY5Y [7]; “Non-toxic” in the data set on SH-SY5Y [8]; 3.57 µmol/L in the data set on SH-SY5Y [10]; 3.71 µmol/L with SH-SY5Y [11]. In the data set on SH-SY5Y [12], the Activity is 3.78 µmol/L. Moreover, the outcome in the data set on SH-SY5Y [6] and with SH-SY5Y [14] was Active. Further, in the data set on SH-SY5Y [9], the outcome was inactive.
Take `CN1C(=O)[C@]23CC4=CC=C[C@H](O)[C@H]4N2C(=O)[C@@]1(CO)SS3`: in the data set with SH-SY5Y [15], the outcome was Active.
Take `N=C(N)NCCC[C@H](NC(=O)[C@@H]1CCCN1C(=O)CN)C(=O)O` (H-Gly-Pro-Arg-OH): in [1], the half-life is 1.58 h. Besides, the Activity with SH-SY5Y [4] amounted to 2.64 µmol/L; in the data set on SH-SY5Y [7], 3.68 µmol/L; in the data set with SH-SY5Y [10], 3.05 µmol/L; in the data set on SH-SY5Y [11], 3.74 µmol/L; in the data set on SH-SY5Y [12] it was 3.72 µmol/L.
Take `C[C@@]1(C(=O)N[C@@H](Cc2cnc[nH]2)C(=O)O)CCCN1C(=O)CN` (H-Gly-[αMeP]-His-OH): the outcome in the data set on SH-SY5Y [16], with SH-SY5Y [17], with SH-SY5Y [6] and in the data set with SH-SY5Y [14] was Active. Also, the half-life in data set [1] is 118 h. In addition, the inhibition entry with SH-SY5Y [2], with SH-SY5Y [3], in the data set with SH-SY5Y [18] and in the data set with SH-SY5Y [13] was “Active” in each case. Further, the Activity in the data set on SH-SY5Y [4] is 2.38 µmol/L; in the data set with SH-SY5Y [5], 70%; in the data set on SH-SY5Y [7], 3.74 µmol/L; with SH-SY5Y [8], “Non-toxic”; in the data set on SH-SY5Y [10] it was 2.96 µmol/L; in the data set with SH-SY5Y [11], 3.76 µmol/L. For the same compound, the Activity with SH-SY5Y [12] was 3.81 µmol/L. Besides, in the data set on SH-SY5Y [9], the result was inactive.
As to `C[C@@]1(C(=O)N[C@@H](CCCCN)C(=O)O)CCCN1C(=O)CN` (H-Gly-[αMeP]-Lys-OH), the half-life in data set [1] was 51.6 h. For the same compound, the inhibition entry in the data set on SH-SY5Y [2], in the data set with SH-SY5Y [3] and in the data set on SH-SY5Y [13] was “Active” each time. Moreover, the Activity with SH-SY5Y [4] was 2.65 µmol/L; with SH-SY5Y [5] it was 70%; in the data set on SH-SY5Y [7], 3.74 µmol/L; in the data set with SH-SY5Y [8], “Non-toxic”; in the data set on SH-SY5Y [10] it was 2.98 µmol/L; in the data set on SH-SY5Y [11], 3.68 µmol/L. Moreover, the Activity with SH-SY5Y [12] stood at 3.7 µmol/L. In addition, the outcome in the data set with SH-SY5Y [6] and in the data set on SH-SY5Y [14] was Active. For the same compound, in the data set with SH-SY5Y [9], the outcome was inactive.
